Where two headings read alike, the source gives them in different places. Square brackets hold non-standard residues; d marks the D form. Peptide text beside a SMILES is read from it. * marks the point of attachment. Cha = N[C@@H](CC1CCCCC1)C(=O)O; Crotonyl(E) = C/C=C/C(=O)*; Dap = NC[C@H](N)C(=O)O; Acryloyl = C=CC(=O)*; BrAc = O=C(CBr)*; ClAc = O=C(CCl)*; X1 = CC#CC(=O)*
Columns and labels:
EcwtSC = EcwtSC (Escherichia coli, UniProt P0A988); experiment: Isothermal Titration Calorimetry (ITC/kinITC), wild-type sliding clamp; assay type: binding, E. coli
Chain of EcwtSC (P0A988 whole entry): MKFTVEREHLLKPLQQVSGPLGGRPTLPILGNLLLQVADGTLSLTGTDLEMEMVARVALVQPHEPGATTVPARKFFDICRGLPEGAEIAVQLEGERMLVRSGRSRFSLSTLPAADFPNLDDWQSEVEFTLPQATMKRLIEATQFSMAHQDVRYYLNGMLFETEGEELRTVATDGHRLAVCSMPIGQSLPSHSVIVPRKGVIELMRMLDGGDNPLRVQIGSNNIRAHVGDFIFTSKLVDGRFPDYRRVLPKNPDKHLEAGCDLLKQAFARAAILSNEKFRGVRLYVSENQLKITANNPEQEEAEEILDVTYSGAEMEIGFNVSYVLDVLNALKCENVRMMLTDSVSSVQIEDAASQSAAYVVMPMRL
Method: ITC experiments were performed using an iTC200 or a PEAQ-ITC instrument (Microcal Malvern Panalytical). […] Data were corrected for the heat of injection by subtracting the signal of the titration of peptides into protein-free buffer solution either R1 buffer ([4-(2-hydroxyethyl)piperazine-1-ethanesulfonic acid (HEPES) 10 mM pH 7.4, NaCl 0.15 M, EDTA 3 mM] or AcNH4 pH7.4, 150 mM). Each titration was performed at least twice: the exact number of the experiments performed with each peptide is indicated in Tables 1-6. Reported data are mean values (± SD) of all experiments. Analyses of the experimental data were performed, following a classical treatment with AFFINImeter software (https://www.affinimeter.com; S4S, Santiago de Compostela, Spain). In addition, kinetic information was obtained in some cases with kinITC as implemented in software AFFINImeter (D. Burnouf et al., J. Am. Chem. Soc. 2012, 134, 559-565; and P. Dumas et al., in Methods Enzymol., Elsevier, 2016, pp. 157-180).

EcH175GSC = EcH175GSC (Escherichia coli, UniProt P0A988, H175G); experiment: Isothermal Titration Calorimetry (ITC/kinITC), H175G mutant sliding clamp; assay type: binding, E. coli; conditions: for ΔΔH (ΔH reduction): H175G SC mutant compared to EcwtSC, 25 °C; for ΔΔH (ΔH reduction) / -TΔS / ΔG / ΔH: R1 buffer; for -TΔS / ΔG / ΔH: 25 °C (298.15K)
Chain of EcH175GSC (P0A988 whole entry H175G): as the sequence (P0A988 whole entry) above, with H175G counted along it
Method: ITC experiments were performed using an iTC200 or a PEAQ-ITC instrument (Microcal Malvern Panalytical). Peptides (300 or 600 µM) were titrated at 25 °C by sequential injections (usually 2 µL each) into an SC solution (30 or 60 µM). Data were corrected for the heat of injection by subtracting the signal of the titration of peptides into protein-free buffer solution either R1 buffer ([4-(2-hydroxyethyl)piperazine-1-ethanesulfonic acid (HEPES) 10 mM pH 7.4, NaCl 0.15 M, EDTA 3 mM] or AcNH4 pH7.4, 150 mM). Each titration was performed at least twice: the exact number of the experiments performed with each peptide is indicated in Tables 1-6. Reported data are mean values (± SD) of all experiments. Analyses of the experimental data were performed, following a classical treatment with AFFINImeter software (https://www.affinimeter.com; S4S, Santiago de Compostela, Spain). In addition, kinetic information was obtained in some cases with kinITC as implemented in software AFFINImeter (D. Burnouf et al., J. Am. Chem. Soc. 2012, 134, 559-565; and P. Dumas et al., in Methods Enzymol., Elsevier, 2016, pp. 157-180).

EcSC = biological target: T1, EcSC (Escherichia coli, UniProt P0A988); experiment: Covalent adduct formation monitored by mass spectrometry, kinetic constants kinact; assay type: biochemical, E. coli; conditions: for formation of covalent adducts: reaction monitored by mass spectrometry
T1 construct: compatible with the molecular weight of ^EcSC monomer (40.6 kDa); endogenous in cells; host or cells: E. coli whole cell lysate
T1 sequence (P0A988 whole entry): as the sequence (P0A988 whole entry) above
Method: We consider the following two-steps reaction model to describe the binding of the peptide to SC and the covalent bond formation to the His 175 residue: • First step: the peptides bind reversibly to the SC binding site • Second: the formation of the covalent bond. [drawing 31]
Overall, no major effect of the incorporation of the warheads on the binding affinity was observed on the whole series of the TCls. […] Then, kinetic constants (kinact) of compounds 1 and 2 were determined at 22°C and 37°C (Table 7, entries 4 and 7).

[1] = buffer AcNH4 pH 7.4, 150 mM, 295.15 K (22 °C)
[2] = buffer AcNH4 pH 7.4, 150 mM, 295.15 K (22 °C), read-out: KD
[3] = buffer AcNH4 pH 7.4, 150 mM, 310.15 K (37 °C)
[4] = buffer AcNH4 pH 7.4, 150 mM, 310.15 K (37 °C), read-out: KD
[5] = buffer R1 (X 1), 295.15 K (22 °C)
[6] = buffer R1 (X 1), 310.15 K (37 °C)

| Compound | -TΔS (EcwtSC; R1 buffer, 25 °C (298.15K)) | ΔG (EcwtSC; R1 buffer, 25 °C (298.15K)) | ΔH (EcwtSC; R1 buffer, 25 °C (298.15K)) | -TΔS (EcwtSC; [1]) | ΔG (EcwtSC; [1]) | ΔH (EcwtSC; [1]) | Kd (EcwtSC; [2]) [nM] | -TΔS (EcwtSC; [3]) | ΔG (EcwtSC; [3]) | ΔH (EcwtSC; [3]) | Kd (EcwtSC; [4]) [nM] | -TΔS (EcwtSC; [5]) | ΔG (EcwtSC; [5]) | ΔH (EcwtSC; [5]) | -TΔS (EcwtSC; [6]) | ΔG (EcwtSC; [6]) | ΔH (EcwtSC; [6]) | ΔΔH (ΔH reduction) (EcH175GSC) [kcal/mol] | -TΔS (EcH175GSC) | ΔG (EcH175GSC) | further results |
| --- | --- | --- | --- | --- | --- | --- | --- | --- | --- | --- | --- | --- | --- | --- | --- | --- | --- | --- | --- | --- | --- |
| C=CC(=O)NC[C@H](NC(=O)[C@H](CC1CCCCC1)NC(=O)[C@H](CCC(N)=O)NC(C)=O)C(=O)N[C@@H](CC(C)C)C(=O)N[C@@H](Cc1ccccc1)C(=O)O [Peptide 1, Ac-Gln-Cha-Dap(acrylamide)-Leu-Phe-OH] (Ac-Q[Cha][Dap](Acryloyl)LF-OH) | 3.7 (± 0.02) kcal/mol | -9.2 (± 0.07) kcal/mol | -12.8 (± 0.08) kcal/mol | 2.3 (± 0.7) kcal/mol | -9.3 (± 0.3) kcal/mol | -11.5 (± 0.5) kcal/mol | 153 | 6.9 (± 1.1) kcal/mol | -8.9 (± 0.1) kcal/mol | -15.9 (± 1.2) kcal/mol | 482 | 2.1 (± 0.2) kcal/mol | -9.4 (± 0.2) kcal/mol | -11.4 (± 0.4) kcal/mol | 4.9 (± 1.1) kcal/mol | -9.04 (± 0.26) kcal/mol | -13.9 (± 0.8) kcal/mol | 2.1 | 3.3 (±0.7) kcal/mol | -8.3 (±0.1) kcal/mol | ΔH (EcH175GSC): -11.6 (±0.6) kcal/mol; formation of covalent adducts (EcSC): form covalent adducts |
| CC(=O)N[C@@H](CCC(N)=O)C(=O)N[C@@H](CC1CCCCC1)C(=O)N[C@@H](CNC(=O)CBr)C(=O)N[C@@H](CC(C)C)C(=O)N[C@@H](Cc1ccccc1)C(=O)O [Peptide 4, Ac-Gln-Cha-Dap(bromoacetamide)-Leu-Phe-OH] (Ac-Q[Cha][Dap](BrAc)LF-OH) | – | – | – | – | – | – | 111 | – | – | – | 281 | – | – | – | – | – | – | – | – | – | Kd (EcwtSC; KD (nM) at 22 °C (AcONH4 buffer), Table 7, 22 °C, AcONH4 buffer): 111 ± 17 nM; Kd (EcwtSC; KD (nM) at 25°C (Hepes buffer), Table 7, 25°C, Hepes buffer): 139 ± 54 nM; Kd (EcwtSC; KD (nM) at 37 °C (AcONH4 buffer), Table 7, 37 °C, AcONH4 buffer): 281 ± 62 nM; Kd (EcwtSC; R1 buffer, 25 °C (298.15K), read-out: KD): 141 nM; Kd (EcwtSC; buffer R1 (X 1), 295.15 K (22 °C), read-out: KD): 96.4 nM; Kd (EcwtSC; buffer R1 (X 1), 310.15 K (37 °C), read-out: KD): 273 nM; Kd (EcH175GSC): 730 nM |
| CC(=O)N[C@@H](CCC(N)=O)C(=O)N[C@@H](CC1CCCCC1)C(=O)N[C@@H](CNC(=O)CCl)C(=O)N[C@@H](CC(C)C)C(=O)N[C@@H](Cc1ccccc1)C(=O)O [Peptide 2, Ac-Gln-Cha-Dap(chloroacetamide)-Leu-Phe-OH] (Ac-Q[Cha][Dap](ClAc)LF-OH) | 2.5 (± 0.4) kcal/mol | -9.2 (± 0.1) kcal/mol | -11.7 (± 0.4) kcal/mol | 1.7 (± 1.5) kcal/mol | -9.2 (± 0.1) kcal/mol | -10.9 (± 1.5) kcal/mol | – | 8.1 (± 3.0) kcal/mol | -8.9 (± 0.4) kcal/mol | -16.9 (± 2.7) kcal/mol | 580 | -0.3 (± 0.1) kcal/mol | -9.31 (± 0.03) kcal/mol | -8.9 (± 0.1) kcal/mol | 2.3 (± 0.9) kcal/mol | -9.03 (± 0.23) kcal/mol | -11.3 (± 0.8) kcal/mol | 3.2 | 1.2 (±0.1) kcal/mol | -8.3 (±0.08) kcal/mol | Kd (EcwtSC; read-out: KD (nM) at 22 °C (AcONH4 buffer), Table 7, 22 °C, AcONH4 buffer): 146 ± 20 nM; ΔH (EcH175GSC): -9.6 (±0.1) kcal/mol; kinact (M^-1. s^-1) at 37 °C (AcONH4 buffer) (EcSC; 37 °C, AcONH4 buffer, second-order rate constant): 1.04 ± 0.01 M⁻¹ s⁻¹; formation of covalent adducts (EcSC): form covalent adducts |
| CC#CC(=O)NC[C@H](NC(=O)[C@H](CC1CCCCC1)NC(=O)[C@H](CCC(N)=O)NC(C)=O)C(=O)N[C@@H](CC(C)C)C(=O)N[C@@H](Cc1ccccc1)C(=O)O [Peptide 5, Ac-Gln-Cha-Dap(but-2-ynamide)-Leu-Phe-OH] (Ac-Q[Cha][Dap](X1)LF-OH) | 2.1 (± 0.1) kcal/mol | -9.8 (± 0.1) kcal/mol | -11.8 (± 0.06) kcal/mol | – | – | – | – | – | – | – | – | 2.7 (± 1.2) kcal/mol | -10.5 (± 0.2) kcal/mol | -13.1 (± 1.2) kcal/mol | 6.9 (± 0.4) kcal/mol | -10.12 (± 0.03) kcal/mol | -17.0 (± 0.4) kcal/mol | 2.0 | 0.04 (±0.3) kcal/mol | -9.7 (±0.1) kcal/mol | ΔH (EcH175GSC): -9.7 (±0.2) kcal/mol |
| C/C=C/C(=O)NC[C@H](NC(=O)[C@H](CC1CCCCC1)NC(=O)[C@H](CCC(N)=O)NC(C)=O)C(=O)N[C@@H](CC(C)C)C(=O)N[C@@H](Cc1ccccc1)C(=O)O [Peptide 3, Ac-Gln-Cha-Dap(but-2-enamide)-Leu-Phe-OH] (Ac-Q[Cha][Dap](Crotonyl(E))LF-OH) | 1.1 (± 0.1) kcal/mol | -9.25 (± 0.01) kcal/mol | -10.4 (± 0.1) kcal/mol | 0.79 (± 0.52) kcal/mol | -9.02 (± 0.2) kcal/mol | -9.81 (± 0.4) kcal/mol | 212 | 6.31 (±0.02) kcal/mol | -8.97 (± 0.06) kcal/mol | -15.3 (± 0.1) kcal/mol | – | 1.8 (± 0.4) kcal/mol | -9.7 (± 0.2) kcal/mol | -11.7 (± 0.6) kcal/mol | 5.8 (± 1) kcal/mol | -9.1 (± 0.2) kcal/mol | -14.8 (± 0.8) kcal/mol | – | – | – | Kd (EcwtSC; read-out: KD (nM) at 37 °C (AcONH4 buffer), Table 7, 37 °C, AcONH4 buffer): 475 ± 47 nM |

— patent EP4445957A1, “ANTIBACTERIAL COVALENT PEPTIDE INHIBITORS” (priority 2023, dated 2024)
